# System: primary mouse cortical neurons
# Assay: In vitro spinogenesis: synaptophysin (P38) puncta / synapse count in primary mouse cortical neurons
# Type: cell-based
# Conditions: for increase in the number of synapses compared to the control: 1 μM, 24 hrs of treatment starting at DIV 15, DIV 16 neurons; for number of synaptic puncta (P38-immunopositive) compared to the vehicle control: 5 μM, 24 hours of treatment starting at DIV 15, DIV 16 neurons
# Text: Compounds of the current invention bind to the actin bundling protein, fascin, and prevent the formation of long, stiff actin cytoskeleton, thereby promoting dendritic spine formation. (see, Sedeh, R. S. et al. J. Mol. Biol. 400, 589-604 (2010); Chen, L. et al. Nature 464, 1062-1066 (2010); Jansen, S. et al. J. Biol. Chem. 286, 30087-30096 (2011); Yang, S. et al. J. Biol. Chem. 288, 274-284 (2013); Zheng, S. et al. J. Med. Chem. 57, 6653-6667 (2014)). […] Specifically, the Benzothiazole-IIIA and Benzothiazole-IIIB compounds of the instant invention, as well as the Benzothiazole-I compound as described in International application number PCT/US2017/012139, were used in this study (FIG. 1).
# Primary mouse cortical neurons were treated with 5 μM of Benzothiazole-I, Benzothiazole-IIIA, or Benzothiazole-IIIB at DIV 15. As a control, primary mouse cortical neurons were treated with the vehicle only (10% DMSO, 90% phosphate buffered saline (PBS)). After 24 hours, the DIV 16 neurons were fixed, immunostained using the presynaptic vesicle protein synaptophysin (P38), counterstained with the nuclear dye DAPI (4′,6-diamidino-2-phenylindole,), and counted. Immunolabeled neurons were imaged on a Leica confocal microscope. The numbers of P38-immunopositive puncta were analyzed using FIJI with the Squash plugin (FIG. 2).
# In a similar experiment, the primary mouse cortical neurons were treated with 1 μM of Benzothiazole-I or Benzothiazole-IIIB at DIV 15, using the same DMSO/PBS buffer solution described above as the control vehicle. After 24 hours, the DIV 16 neurons were fixed, immunolabeled with synaptophysin, stained with DAPI, and counted as described above.
SMILES,increase in the number of synapses compared to the control [%],number of synaptic puncta (P38-immunopositive) compared to the vehicle control
"Cc1ccc2nc(-c3ccc(NCCOCCOCCOCCO)cc3)sc2c1 [Benzothiazole-I, ((4-(6-methylbenzo[d]thiazol-2-yl)phenyl)amino)-(CH2CH2O)4H, reference compound]",~100,increase
OCCOCCOCCOCCOCCOCCOc1ccc(-c2nc3ccccc3s2)cc1 [Benzothiazole-IIIA],,increase
"OCCOCCOCCOCCOc1ccc(-c2nc3ccccc3s2)cc1 [Benzothiazole-IIIB, 2-(2-(2-(2-(4-(benzo[d]thiazol-2-yl)phenoxy)ethoxy)ethoxy)ethoxy)ethan-1-ol]",~100,increase
